# Measured values reported in PubChem BioAssay (NCI).
#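 Step 1: Grow cells in 96-well plates. Step 2: Expose to compound for 48 hours at 5 concentrations. Step 3: Interpolate endpoints linearly; if unreached, use highest concentration. Definition used: TGI = concentration required for complete inhibition of growth.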
# Experiments:
# Test in all cases: NCI tumour cell line growth inhibition, 48 h
# COLO 205 colon = system: COLO 205 colon
# SK-MEL-2 melanoma = system: SK-MEL-2 melanoma
# DMS 114 small cell lung = system: DMS 114 small cell lung
# IGROV1 ovarian = system: IGROV1 ovarian
# HOP-62 NSCLC = system: HOP-62 NSCLC
# SF-268 CNS = system: SF-268 CNS
# K-562 leukemia = system: K-562 leukemia
# HL-60(TB) leukemia = system: HL-60(TB) leukemia
# A549 NSCLC = system: A549 NSCLC
# DMS 273 small cell lung = system: DMS 273 small cell lung
# LOX IMVI melanoma = system: LOX IMVI melanoma
# EKVX NSCLC = system: EKVX NSCLC
# SNB-19 CNS = system: SNB-19 CNS
# OVCAR-4 ovarian = system: OVCAR-4 ovarian
# UACC-257 melanoma = system: UACC-257 melanoma
# SNB-75 CNS = system: SNB-75 CNS
# SN12C renal = system: SN12C renal
# SW-620 colon = system: SW-620 colon
# SF-295 CNS = system: SF-295 CNS
# KM20L2 colon = system: KM20L2 colon
# RPMI-8226 leukemia = system: RPMI-8226 leukemia
# RXF 393 renal = system: RXF 393 renal
# UO-31 renal = system: UO-31 renal
# OVCAR-8 ovarian = system: OVCAR-8 ovarian
# HCT-15 colon = system: HCT-15 colon
# 786-0 renal = system: 786-0 renal
# LXFL 529 NSCLC = system: LXFL 529 NSCLC
# CCRF-CEM leukemia = system: CCRF-CEM leukemia
# NCI-H23 lung = system: NCI-H23 lung
# A498 renal = system: A498 renal
# HCT-116 colon = system: HCT-116 colon
# NCI-H522 lung = system: NCI-H522 lung
# HOP-92 NSCLC = system: HOP-92 NSCLC
# HT29 colon = system: HT29 colon
# MALME-3M melanoma = system: MALME-3M melanoma
# UACC-62 melanoma = system: UACC-62 melanoma
# TK-10 renal = system: TK-10 renal
# SK-OV-3 ovarian = system: SK-OV-3 ovarian
# SK-MEL-28 melanoma = system: SK-MEL-28 melanoma
# MOLT-4 leukemia = system: MOLT-4 leukemia
# OVCAR-5 ovarian = system: OVCAR-5 ovarian
# ACHN renal = system: ACHN renal
# XF 498 CNS = system: XF 498 CNS
# HOP-18 NSCLC = system: HOP-18 NSCLC
# M14 melanoma = system: M14 melanoma
# SK-MEL-5 melanoma = system: SK-MEL-5 melanoma
# U251 CNS = system: U251 CNS
# KM12 colon = system: KM12 colon
# RXF-631 renal = system: RXF-631 renal
# NCI-H460 lung = system: NCI-H460 lung
# OVCAR-3 ovarian = system: OVCAR-3 ovarian
# CAKI-1 renal = system: CAKI-1 renal
# NCI-H226 lung = system: NCI-H226 lung
# SF-539 CNS = system: SF-539 CNS
# BT-549 breast = system: BT-549 breast
# HS 578T breast = system: HS 578T breast
# SNB-78 CNS = system: SNB-78 CNS
# PC-3 prostate = system: PC-3 prostate
# DU-145 prostate = system: DU-145 prostate
# MDA-N = system: MDA-N
# M19-MEL melanoma = system: M19-MEL melanoma
# MCF7 breast = system: MCF7 breast
# SR leukemia = system: SR leukemia
# MDA-MB-435 = system: MDA-MB-435
# NCI/ADR-RES ovarian = system: NCI/ADR-RES ovarian
# DLD-1 colon = system: DLD-1 colon
# HCC-2998 colon = system: HCC-2998 colon
smiles,measurement,setting,value
CN1CCCC2[C@@H]3CCC4=C(O)C(=O)CC[C@]4(C)C3CC[C@@]21C (some centres not stated),TGI,COLO 205 colon,> 100 µM
same,TGI,SK-MEL-2 melanoma,> 100 µM
same,TGI,DMS 114 small cell lung,> 100 µM
same,TGI,IGROV1 ovarian,> 100 µM
same,TGI,HOP-62 NSCLC,> 100 µM
same,TGI,SF-268 CNS,> 100 µM
same,TGI,K-562 leukemia,> 100 µM
same,TGI,HL-60(TB) leukemia,> 100 µM
same,TGI,A549 NSCLC,> 100 µM
same,TGI,DMS 273 small cell lung,> 100 µM
same,TGI,LOX IMVI melanoma,> 100 µM
same,TGI,EKVX NSCLC,> 100 µM
same,TGI,SNB-19 CNS,> 100 µM
same,TGI,OVCAR-4 ovarian,> 100 µM
same,TGI,UACC-257 melanoma,> 100 µM
same,TGI,SNB-75 CNS,> 100 µM
same,TGI,SN12C renal,> 100 µM
same,TGI,SW-620 colon,> 100 µM
same,TGI,SF-295 CNS,> 100 µM
same,TGI,KM20L2 colon,> 100 µM
same,TGI,RPMI-8226 leukemia,> 100 µM
same,TGI,RXF 393 renal,> 100 µM
same,TGI,UO-31 renal,> 100 µM
same,TGI,OVCAR-8 ovarian,> 100 µM
same,TGI,HCT-15 colon,> 100 µM
same,TGI,786-0 renal,> 100 µM
same,TGI,LXFL 529 NSCLC,> 100 µM
same,TGI,CCRF-CEM leukemia,> 100 µM
same,TGI,NCI-H23 lung,> 100 µM
same,TGI,A498 renal,> 100 µM
same,TGI,HCT-116 colon,> 100 µM
same,TGI,NCI-H522 lung,> 100 µM
same,TGI,HOP-92 NSCLC,> 100 µM
same,TGI,HT29 colon,> 100 µM
same,TGI,MALME-3M melanoma,> 100 µM
same,TGI,UACC-62 melanoma,> 100 µM
same,TGI,TK-10 renal,> 100 µM
same,TGI,SK-OV-3 ovarian,> 100 µM
same,TGI,SK-MEL-28 melanoma,> 100 µM
same,TGI,MOLT-4 leukemia,> 100 µM
same,TGI,OVCAR-5 ovarian,> 100 µM
same,TGI,ACHN renal,> 100 µM
same,TGI,XF 498 CNS,> 100 µM
same,TGI,HOP-18 NSCLC,> 100 µM
same,TGI,M14 melanoma,> 100 µM
same,TGI,SK-MEL-5 melanoma,> 100 µM
same,TGI,U251 CNS,> 100 µM
same,TGI,KM12 colon,> 100 µM
same,TGI,RXF-631 renal,> 100 µM
same,TGI,NCI-H460 lung,> 100 µM
same,TGI,OVCAR-3 ovarian,> 100 µM
same,TGI,CAKI-1 renal,> 100 µM
same,TGI,NCI-H226 lung,> 100 µM
same,TGI,SF-539 CNS,> 100 µM
COc1ccc(/C=C2\CCC(CN3CCOCC3)C2=O)cc1 (configuration not stated),TGI,COLO 205 colon,5.38 µM
same,TGI,SK-MEL-2 melanoma,9.66 µM
same,TGI,DMS 114 small cell lung,7.09 µM
same,TGI,IGROV1 ovarian,11.3 µM
same,TGI,HOP-62 NSCLC,33.3 µM
same,TGI,SF-268 CNS,16.4 µM
same,TGI,K-562 leukemia,6.02 µM
same,TGI,HL-60(TB) leukemia,11.2 µM
same,TGI,A549 NSCLC,20.8 µM
same,TGI,LOX IMVI melanoma,10.1 µM
same,TGI,EKVX NSCLC,21.1 µM
same,TGI,SNB-19 CNS,26 µM
same,TGI,OVCAR-4 ovarian,24.1 µM
same,TGI,UACC-257 melanoma,5.94 µM
same,TGI,SNB-75 CNS,30.5 µM
same,TGI,SN12C renal,12.3 µM
same,TGI,SW-620 colon,3.86 µM
same,TGI,SF-295 CNS,32.1 µM
same,TGI,KM20L2 colon,13.5 µM
same,TGI,RPMI-8226 leukemia,3.57 µM
same,TGI,RXF 393 renal,3.12 µM
same,TGI,BT-549 breast,5.54 µM
same,TGI,UO-31 renal,15.3 µM
same,TGI,OVCAR-8 ovarian,7.35 µM
same,TGI,HCT-15 colon,6.2 µM
same,TGI,HS 578T breast,> 100 µM
same,TGI,786-0 renal,3.11 µM
same,TGI,LXFL 529 NSCLC,3.04 µM
same,TGI,SNB-78 CNS,27 µM
same,TGI,CCRF-CEM leukemia,> 21.3 µM
same,TGI,NCI-H23 lung,14.4 µM
same,TGI,A498 renal,21.4 µM
same,TGI,PC-3 prostate,11.7 µM
same,TGI,DU-145 prostate,4.02 µM
same,TGI,NCI-H522 lung,2.39 µM
same,TGI,MDA-N,5.83 µM
same,TGI,M19-MEL melanoma,30.5 µM
same,TGI,HOP-92 NSCLC,6.65 µM
same,TGI,HT29 colon,5.73 µM
same,TGI,MALME-3M melanoma,6.42 µM
same,TGI,UACC-62 melanoma,24.5 µM
same,TGI,TK-10 renal,9.64 µM
same,TGI,SK-OV-3 ovarian,30 µM
same,TGI,MCF7 breast,9.58 µM
same,TGI,SK-MEL-28 melanoma,7.71 µM
same,TGI,MOLT-4 leukemia,6.29 µM
same,TGI,SR leukemia,5.97 µM
same,TGI,OVCAR-5 ovarian,19.5 µM
same,TGI,MDA-MB-435,3.97 µM
same,TGI,ACHN renal,11.7 µM
same,TGI,XF 498 CNS,9.69 µM
same,TGI,HOP-18 NSCLC,18.3 µM
same,TGI,M14 melanoma,5.26 µM
same,TGI,SK-MEL-5 melanoma,12.7 µM
same,TGI,U251 CNS,31.2 µM
same,TGI,NCI/ADR-RES ovarian,5.23 µM
same,TGI,KM12 colon,16.2 µM
same,TGI,RXF-631 renal,43.5 µM
same,TGI,NCI-H460 lung,41.3 µM
same,TGI,OVCAR-3 ovarian,9.36 µM
same,TGI,CAKI-1 renal,4.15 µM
same,TGI,DLD-1 colon,24.8 µM
same,TGI,NCI-H226 lung,35.5 µM
same,TGI,SF-539 CNS,13 µM
same,TGI,HCC-2998 colon,10.9 µM
N#CNCC(COCc1ccccc1)c1ccccc1 (configuration not stated),TGI,COLO 205 colon,> 100 µM
same,TGI,SK-MEL-2 melanoma,> 100 µM
same,TGI,DMS 114 small cell lung,> 100 µM
same,TGI,IGROV1 ovarian,> 100 µM
same,TGI,HOP-62 NSCLC,> 100 µM
same,TGI,SF-268 CNS,> 100 µM
same,TGI,K-562 leukemia,> 100 µM
same,TGI,HL-60(TB) leukemia,> 100 µM
same,TGI,A549 NSCLC,> 100 µM
same,TGI,DMS 273 small cell lung,> 100 µM
same,TGI,LOX IMVI melanoma,> 100 µM
same,TGI,EKVX NSCLC,> 100 µM
same,TGI,SNB-19 CNS,> 100 µM
same,TGI,OVCAR-4 ovarian,> 100 µM
same,TGI,SNB-75 CNS,> 100 µM
same,TGI,SN12C renal,> 100 µM
same,TGI,SW-620 colon,> 100 µM
same,TGI,KM20L2 colon,> 100 µM
same,TGI,RPMI-8226 leukemia,> 100 µM
same,TGI,RXF 393 renal,> 100 µM
same,TGI,UO-31 renal,> 100 µM
same,TGI,OVCAR-8 ovarian,> 100 µM
same,TGI,HCT-15 colon,> 100 µM
same,TGI,786-0 renal,> 100 µM
same,TGI,CCRF-CEM leukemia,> 100 µM
same,TGI,NCI-H23 lung,> 100 µM
same,TGI,A498 renal,> 100 µM
same,TGI,HCT-116 colon,> 100 µM
same,TGI,NCI-H522 lung,> 100 µM
same,TGI,M19-MEL melanoma,> 100 µM
same,TGI,HOP-92 NSCLC,> 100 µM
same,TGI,MALME-3M melanoma,> 100 µM
same,TGI,UACC-62 melanoma,> 100 µM
same,TGI,TK-10 renal,> 100 µM
same,TGI,SK-OV-3 ovarian,> 100 µM
same,TGI,SK-MEL-28 melanoma,> 100 µM
same,TGI,MOLT-4 leukemia,> 100 µM
same,TGI,ACHN renal,> 100 µM
same,TGI,XF 498 CNS,> 100 µM
same,TGI,HOP-18 NSCLC,> 100 µM
same,TGI,M14 melanoma,> 100 µM
same,TGI,SK-MEL-5 melanoma,> 100 µM
same,TGI,U251 CNS,> 100 µM
same,TGI,RXF-631 renal,> 100 µM
same,TGI,NCI-H460 lung,> 100 µM
same,TGI,NCI-H226 lung,> 100 µM
same,TGI,SF-539 CNS,> 100 µM
same,TGI,HCC-2998 colon,> 100 µM
